What is called pIC50 is the IC50 on a negative log10 scale, so that one unit is a factor of ten. In general, melting point refers to the temperature of the solid-liquid transition.

Consider five molecules from patent US7232842B2, “Kinase inhibitors and associated pharmaceutical compositions and methods of use” (Board of Trustees of the LeLand Stanford Junior University, priority 2003, dated 2007).

pIC50: −log10 of the molar value.

The test system of data set [1] is Protein kinase C, as a mixture of isozymes. Description: PKC activity assay, 32P transfer from [γ-32P]ATP to histone III-S. As to conditions: for inhibition at 10 μM: 10 μM inhibitor; for pIC50: histone III-S substrate, 15 min, three trials per concentration. The format is biochemical, rat. The text has this:
In practicing various aspects of the present invention, compounds in accordance with the invention can be tested for a biological activity of interest using any assay protocol that is predictive of activity in vivo. For example, a variety of convenient assay protocols are available that are generally predictive of PKC inhibitory activity in vivo. In one approach, PKC inhibitory activity can be assessed using the PKC assay described in Example 9 (also described by Toullec et al. (1991) J. Biol. Chem. 266:15771). In that assay, the PKC was derived, as a mixture of isozymes, from rat brains, and activity was determined by incorporation of ^32P radiolabeled phosphate, derived from [γ-^32P]-ATP, onto a PKC substrate. Another assay for assessing PKC inhibitory activity is described in Example 10; see also U.S. Patent Application Publication No. 2002/0137789 A1 to Wender et al. In this assay, Ki values are determined for potential inhibitors based on competition with radiolabeled phorbol 12,13-dibutyrate for binding to a mixture of PKC isozymes.
Materials used: Phosphatidyl serine and 1,2 sn-dioleylglycerol were obtained from Serdary Research Laboratories. Protein kinase C, as a mixture of isozymes, was obtained in isolated and purified form from Prof. Daria Mochley-Rosen and Tamar Lion (Stanford University, Department of Molecular Pharmacology).
PKC activity was assayed by measuring ^32Pi transferred from [γ-^32P]ATP to histone III-S (Sigma). The reaction mixture (100 μL) included 20 mM Tris-HCl (pH 7.5) (30 μL), 10 mM CaCl2 in 20 mM Tris-HCl (10 μL), a sonicated suspension of 2.4 mg/mL phosphatidylserine and 80 μg/mL 1,2-diacylglycerol in 20 mM Tris-HCl (10 μL), a PKC preparation of 4.5 mg/mL total PKC with 5–9 U activity/mL relative to histone III-S (10 μL), a solution of 0.35 mg/mL histone III-S (Sigma) in 20 mM Tris-HCl (10 μL), and a solution of the inhibitor at various concentrations in 20 mM Tris-HCl containing <1% DMSO (10 μL). The reaction was started by the addition of a solution containing 27 μL of 3.75 mM ATP (non-radiolabeled), 100 μL 1.0 M MgCl2, and 1.3 μL of […] [γ-^32P]ATP, and 872 μL of 20 mM Tris-HCl (pH 7.5) (20 μL). After 15 min, the reaction was stopped by the addition of 30 μL of 200 mM EDTA and 200 mM ATP (non-radiolabeled). The reaction mixture was adsorbed onto phosphocellulose paper squares (Whatman P81), and allowed to dry for 5 min. The phosphocellulose paper squares were then washed with EtOH (3×1 min). The total protein phosphorylation was quantitated by scintillation counting. Counts per minute were averaged among three trials at each concentration.

For data set [2], the system named is five of the PKC isoforms. As to conditions: cited from earlier work.
Data set [3] concerns PKC. As to conditions: Tamaoki et al. (1986); cited from earlier work.

`CN1C(=O)c2c3c(c4c(c2C1=O)c1ccccc1n4CCCNC(=O)OC(C)(C)C)CCC(O)CC3` (stereo not drawn) [Compound 14]: in data set [1], the “inhibition at 10 μM” value is recorded as “^B40% inhibition at 10 μM” and the pIC50 is under 5.00.
Consider `O=C1CCc2c3c(c4c([nH]c5ccccc54)c2CC1)C(=O)NC3=O` [Compound 11], for which the pIC50 in data set [1] is 5.44.
For `CN1C(=O)c2c3c(c4[nH]c5ccccc5c4c2C1=O)CCC(=O)CC3` [Compound 10], the melting point is 309 to 310 °C (dec.). Moreover, in data set [1], the “inhibition at 10 μM” value is “^A36% inhibition at 10 μM” and the pIC50 was under 5.00.
As for `O=C1NC(=O)c2c1c1c(c3[nH]c4ccccc4c23)CCC(O)CC1` (stereo not drawn) [Compound 12], the pIC50 in data set [1] was 5.35.
For `CN[C@H]1CC2(C)OC(C)([C@H]1OC)n1c3ccccc3c3c4c(c5c6ccccc6n2c5c31)C(=O)NC4` (stereo partly drawn) [Staurosporin], the negative logarithm of the IC50 (pIC50) is over 8.00 in data set [2] and 8.57 in data set [3].
